Measured values taken from the supplement of paper PMC9663587.

What was measured:
[1] = tested on: MCF7; test: GRmax, 72 h; higher = less effect;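 note: breast cell lines in 384-well plates, nine doses across a 10^4 range, Dye Drop imaging of viable cells vs DMSO and time-zero plates, GR 0 means no net growth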
[2] = tested on: SUM149; test: GRmax, 72 h; higher = less effect;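 note: breast cell lines in 384-well plates, nine doses across a 10^4 range, Dye Drop imaging of viable cells vs DMSO and time-zero plates, GR 0 means no net growth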
[3] = tested on: MDAMB453; test: GRmax, 72 h; higher = less effect;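 note: breast cell lines in 384-well plates, nine doses across a 10^4 range, Dye Drop imaging of viable cells vs DMSO and time-zero plates, GR 0 means no net growth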
[4] = tested on: MDAMB231; test: GRmax, 72 h; higher = less effect;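 note: breast cell lines in 384-well plates, nine doses across a 10^4 range, Dye Drop imaging of viable cells vs DMSO and time-zero plates, GR 0 means no net growth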
[5] = tested on: PDXHCI002; test: GRmax, 72 h; higher = less effect
[6] = tested on: MDAMB415; test: GRmax, 72 h; higher = less effect
[7] = tested on: HCC1500; test: area over the GR curve, 72 h; higher = more effect;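 note: Dye Drop or Deep Dye Drop imaging of viable cells in 384-well plates (Hoechst nuclei, LIVE/DEAD dye), nine half-log doses, GR normalized to DMSO controls and time-zero plates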
[8] = tested on: MDAMB157; test: area over the GR curve, 72 h; higher = more effect;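 note: Dye Drop or Deep Dye Drop imaging of viable cells in 384-well plates (Hoechst nuclei, LIVE/DEAD dye), nine half-log doses, GR normalized to DMSO controls and time-zero plates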
[9] = tested on: HCC1428; test: area over the GR curve, 72 h; higher = more effect;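 note: Dye Drop or Deep Dye Drop imaging of viable cells in 384-well plates (Hoechst nuclei, LIVE/DEAD dye), nine half-log doses, GR normalized to DMSO controls and time-zero plates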

SMILES | GRmax, 72 h [1] | GRmax, 72 h [2] | GRmax, 72 h [3] | GRmax, 72 h [4] | GRmax, 72 h [5] | GRmax, 72 h [6] | area over the GR curve [7] | area over the GR curve [8] | area over the GR curve [9]
Cc1cc(Nc2ncc(Cl)c(Nc3ccccc3S(=O)(=O)C(C)C)n2)c(OC(C)C)cc1C1CCNCC1 [Ceritinib/LDK378] (max 10 µM) | -0.616 GR | -0.438 GR | -0.687 GR | -0.333 GR | -0.634 GR | -0.975 GR | 0.274 GR | 0.46 GR | 0.295 GR
N.N.[Cl][Pt][Cl] [Cisplatin] (max 10 µM) | 0.475 GR | -0.229 GR | 0.133 GR | 0.272 GR | -0.0985 GR | – | 0.0866 GR | 0.117 GR | 0.221 GR
Cc1nc(Nc2ncc(C(=O)Nc3c(C)cccc3Cl)s2)cc(N2CCN(CCO)CC2)n1 [Dasatinib] (max 10 µM) | 0.157 GR | -0.172 GR | 0.549 GR | -0.126 GR | 0.0322 GR | 0.342 GR | 0.925 GR | 0.518 GR | 0.256 GR
COc1cccc2c1C(=O)c1c(O)c3c(c(O)c1C2=O)C[C@@](O)(C(=O)CO)C[C@@H]3O[C@H]1C[C@H](N)[C@H](O)[C@H](C)O1 [Doxorubicin] (max 3.162 µM) | -0.286 GR | -0.321 GR | -0.348 GR | -0.486 GR | -0.654 GR | -0.423 GR | 0.751 GR | 0.966 GR | 0.895 GR
COc1cc([C@@H]2c3cc4c(cc3[C@@H](O[C@@H]3O[C@@H]5CO[C@@H](C)O[C@H]5[C@H](O)[C@H]3O)[C@H]3COC(=O)[C@H]23)OCO4)cc(OC)c1O [Etoposide] (max 10 µM) | -0.0441 GR | -0.196 GR | -0.0601 GR | 0.12 GR | -0.179 GR | – | 0.218 GR | 0.609 GR | 0.39 GR
CO[C@H]1C[C@@H]2CC[C@@H](C)[C@@](O)(O2)C(=O)C(=O)N2CCCC[C@H]2C(=O)O[C@H]([C@H](C)C[C@@H]2CC[C@@H](OCCO)[C@H](OC)C2)CC(=O)[C@H](C)/C=C(\C)[C@@H](O)[C@@H](OC)C(=O)[C@H](C)C[C@H](C)/C=C/C=C/C=C/1C [Everolimus] (max 10 µM) | 0.387 GR | 0.737 GR | 0.0309 GR | 0.711 GR | 0.987 GR | 0.0852 GR | 1.26 GR | 0.394 GR | 0.519 GR
CC(C)n1nc(-c2ccc3oc(N)nc3c2)c2c(N)ncnc21 [INK128/MLN0128] (max 3.162 µM) | -0.045 GR | 0.268 GR | -0.468 GR | 0.101 GR | 0.229 GR | -0.338 GR | 1.23 GR | 0.514 GR | 0.648 GR
CC(C)NC[C@@H](C(=O)N1CCN(c2ncnc3c2[C@H](C)C[C@H]3O)CC1)c1ccc(Cl)cc1 [Ipatasertib/GDC0068] (max 10 µM) | 0.25 GR | 0.291 GR | -0.155 GR | 0.925 GR | 1.1 GR | -0.698 GR | -0.0881 GR | 0.0813 GR | -0.0745 GR
CCNC(=O)c1noc(-c2cc(C(C)C)c(O)cc2O)c1-c1ccc(CN2CCOCC2)cc1 [Luminespib/NVP-AUY922] (max 1 µM) | 0.0015 GR | -0.392 GR | -0.499 GR | -0.178 GR | -0.281 GR | -0.305 GR | 0.546 GR | 0.615 GR | 0.637 GR
CCOc1cc2ncc(C#N)c(Nc3ccc(OCc4ccccn4)c(Cl)c3)c2cc1NC(=O)/C=C/CN(C)C [Neratinib/HKI272] (max 3.162 µM) | 0.0582 GR | 0.155 GR | -0.322 GR | -0.0957 GR | -0.161 GR | 0.0922 GR | 0.165 GR | 0.191 GR | 0.101 GR
O=C(c1cc(Cc2n[nH]c(=O)c3ccccc23)ccc1F)N1CCN(C(=O)C2CC2)CC1 [Olaparib/AZD2281] (max 10 µM) | 0.514 GR | 0.205 GR | -0.0358 GR | 0.618 GR | 0.265 GR | 0.816 GR | 0.0931 GR | 0.115 GR | 0.323 GR
CC(=O)O[C@H]1C(=O)[C@@]2(C)[C@H]([C@H](OC(=O)c3ccccc3)[C@]3(O)C[C@H](OC(=O)[C@H](O)[C@@H](NC(=O)c4ccccc4)c4ccccc4)C(C)=C1C3(C)C)[C@]1(OC(C)=O)CO[C@@H]1C[C@@H]2O [Paclitaxel] (max 1 µM) | -0.106 GR | -0.257 GR | 0.0356 GR | -0.12 GR | -0.512 GR | -0.344 GR | 0.609 GR | 0.946 GR | 0.507 GR
CS(=O)(=O)N1CCN(Cc2cc3nc(-c4cccc5[nH]ncc45)nc(N4CCOCC4)c3s2)CC1 [Pictilisib/GDC0941] (max 10 µM) | -0.159 GR | 0.341 GR | -0.374 GR | 0.305 GR | -0.0101 GR | -0.687 GR | 0.203 GR | 0.258 GR | 0.117 GR
CC[C@@]1(O)C(=O)OCc2c1cc1n(c2=O)Cc2cc3c(CN(C)C)c(O)ccc3nc2-1 [Topotecan] (max 10 µM) | -0.271 GR | -0.46 GR | -0.529 GR | -0.324 GR | -0.701 GR | – | 1.22 GR | 1.08 GR | 0.835 GR
